# Experimental data: paper doi:10.1101/2022.03.22.485260v1 (biorxiv, 2022)
# Where two headings read alike, the source gives them in different places.
# Tests used:
# [1] = molecular target: T1, hTMPK (thymidylate kinase) (Homo sapiens, UniProt P23919); experiment: NADH-coupled assay, […] min pre-incubation, non-linear fit; type: biochemical; settings: ATP varied 0-200 μM, 500 μM TMP; mixed inhibition; pH 7.5, 25 °C
# T1 sequence (P23919 2-212): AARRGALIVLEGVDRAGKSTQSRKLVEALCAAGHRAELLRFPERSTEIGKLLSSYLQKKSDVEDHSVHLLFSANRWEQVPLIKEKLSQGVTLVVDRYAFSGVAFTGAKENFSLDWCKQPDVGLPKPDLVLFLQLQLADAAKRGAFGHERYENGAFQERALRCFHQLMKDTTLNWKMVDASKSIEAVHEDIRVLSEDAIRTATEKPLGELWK
# [2] = molecular target: T1, hTMPK (thymidylate kinase); experiment: NADH-coupled; type: biochemical
Ki [1] [nM],"IC50 ([2]; 500 μM ATP, 500 μM dTMP, 10 mM MgCl2, pH 7.5, 25 °C) [nM]",IC50 [2] [nM],Compound
5,160,,Tert-butyl 4-(2-(5-fluoro-3-oxobenzo[d]isothiazol-2(3H)-yl) acetyl) piperazine-1-carboxylate [JMF4073]
,,500,CC(C)(C)OC(=O)N1CCN(C(=O)Cn2sc3ccccc3c2=O)CC1 [JMF2977]
